Source: patent publication US8815535B2, “Disk diffusion assay for oritavancin” (The Medicines Company, priority 2011, dated 2014)
Several values for one entry are separate records, joined by “and”; a condition that tells them apart may be missing. Equal values may be shown once. Read-outs that look alike come from different tables or passages of the source.

Tested on: MSSA ATCC 25923
Experiment: Disk diffusion assay (zone of inhibition)
Type: cell-based, Staphylococcus aureus
Conditions: for Average zone diameter: disks from 18 mg/ml oritavancin in 5% P80, 3-hour prediffusion; for zone of inhibition at 9000 µg/mL: read-out: Inhibition zone diameter, ATCC 25923; for zone of inhibition at 45 µg/disc: 45 μg oritavancin in 0.002% P80; for zone of inhibition at 90 µg/disc: 90 μg oritavancin in 0.002% P80; for zone of inhibition at 180 µg/disc: 180 μg oritavancin in 0.002% P80; for zone of inhibition at 12.5 µg/disc: 12.5 μg in 4% P80/Span 80 (1:1)
Text: The study was designed to identify conditions that improve oritavancin diffusion in agar and consequently yield a zone diameter ≧15 mm for the CLSI quality control strain MSSA ATCC 25923. Excipients that increased the disk diffusion of oritavancin in agar relative to disks containing only oritavancin were identified and selected for further study. […] A prediffusion step at room temperature was introduced to maximize oritavancin diffusion prior to initiation of bacterial growth. In this step, the antimicrobial disks were placed on agar plates seeded with a bacterial isolate and incubated at room temperature for 3 hours. Plates were then incubated overnight at 37° C. Zone diameters around the disks in which bacterial growth was inhibited were measured with a ruler and reported in millimeters.
Ethanol-sterilized Whatman paper disks (6 mm diameter) were allowed to dry then impregnated with 20 microliters of oritavancin solution containing total amounts ranging from 90 to 360 micrograms. Disks were allowed to dry at room temperature for various times prior to use.
Bacterial suspensions were prepared and adjusted to an optical density of 0.1 at 600 nm. […] The plate was swabbed a second time, perpendicular to the orientation of the first swab. To assess the impact of prediffusion on diameter of inhibition zones, two disks were immediately placed on one half of the plate and the plate was incubated for 3 hours at room temperature. After 3 hours, two additional disks were placed on the other half of the plate then the plate was incubated overnight at 37° C. Zone diameters were measured with a ruler and reported in millimeters. […]
Oritavancin powder was dissolved in freshly-prepared solutions of the indicated excipients at concentrations of 0.625, 1.25, 2.5, 5, and 10 mg/ml (adjusted for potency based on lot 875561L00 purity of 83.1%) by vortexing for a minimum of 5 minutes. Oritavancin solutions in the various excipients, while not visually clear, were free from any apparent particulates as assessed visually. Sterile Oxoid blank disks were impregnated with 20 μl of these oritavancin solutions, resulting in oritavancin disk loads ranging from 12.5 to 200 μg. Unless indicated otherwise, disks were allowed to dry overnight at room temperature prior to use.
[…] Swabbing was continued at a right angle and then at an oblique angle to the first and second swabs. Disks were placed upon the seeded plates with sterile forceps. Plates were then incubated overnight at 37° C. and inhibition zone diameters were measured with a ruler and reported in millimeters.

[1] = Staphylococcus aureus, read-out: Average zone diameter, MSSA ATCC 25923, CAMHA containing 1% P80, no prediffusion
[2] = Staphylococcus aureus, read-out: Average zone diameter, MSSA ATCC 25923, CAMHA containing 1% P80, prediffusion

`CN[C@H](CC(C)C)C(=O)N[C@H]1C(=O)N[C@@H](CC(N)=O)C(=O)N[C@H]2C(=O)N[C@H]3C(=O)N[C@H](C(=O)N[C@H](C(=O)O)c4cc(O)cc(O)c4-c4cc3ccc4O)[C@H](O[C@H]3C[C@](C)(N)[C@@H](O)[C@H](C)O3)c3ccc(c(Cl)c3)Oc3cc2cc(c3O[C@@H]2O[C@H](CO)[C@@H](O)[C@H](O)[C@H]2O[C@H]2C[C@](C)(NCc3ccc(-c4ccc(Cl)cc4)cc3)[C@@H](O)[C@H](C)O2)Oc2ccc(cc2Cl)[C@H]1O` [oritavancin, N-(4-(4-chlorophenyl)benzyl)A82846B] was tested, and the Inhibition zone diameter (ATCC 25923, 25 μg (20 μl of 1.25 mg/ml) in 4% P80/Span 80 (1:1), calcium alginate swab, dried overnight) was 22 mm and 20 mm, the Inhibition zone diameter (ATCC 25923, 20 μl of 9 mg/ml oritavancin in 2.5% P80, prediffusion at 4° C. 3 h, duplicate determinations) was 19 mm and the Inhibition zone diameter (ATCC 25923, 20 μl of 9 mg/ml oritavancin in 2.5% P80, prediffusion at 4° C. 6 h, duplicate determinations) was 22 mm. It also gave an Inhibition zone diameter (ATCC 25923, 20 μl of 9 mg/ml oritavancin in 2.5% P80, prediffusion at room temperature 3 h, duplicate determinations) of 17 mm, an Inhibition zone diameter (ATCC 25923, 20 μl of 9 mg/ml oritavancin in 2.5% P80, prediffusion at room temperature 6 h, duplicate determinations) of 18.5 mm and an Inhibition zone diameter (ATCC 25923, Oxoid disks, 20 μl of 18 mg/ml oritavancin in 5% P80, stored 30 days at room temperature, prediffusion 6 hours at 4° C.) of 17.5 mm. The Average zone diameter (ATCC 25923, stored 1 day at room temperature) was 15.0 mm, the Average zone diameter (ATCC 25923, stored 4 days at room temperature) was 15.8 mm and the Average zone diameter (ATCC 25923, stored 6 days at room temperature) was 16.3 mm. For the same molecule, the Average zone diameter (ATCC 25923, stored 8 days at room temperature) was 17.0 mm, the Average zone diameter (ATCC 25923, used same day) was 14.0 mm and the “Increase of the area of the zone of clearance by prediffusion” value (MSSA ATCC 25923, 360 μg oritavancin in 0.002% P80) was “approximately 24%”. It also gave a Zone diameters (MSSA ATCC 25923, CAMHA containing 1% P80, disks with various concentrations of oritavancin in 0.002% P80, even with 3 h prediffusion) of under 15 mm, an Inhibition zone diameter (MSSA ATCC 25923, Oxoid disk, 180 μg, 5% P80, stored 7 days, prediffusion 3 h at 4° C., duplicates) of 12.5 mm and an Inhibition zone diameter (MSSA ATCC 25923, Oxoid disk, 270 μg, 5% P80, stored 7 days, prediffusion 3 h at 4° C., duplicates) of 13.5 mm. The Inhibition zone diameter (MSSA ATCC 25923, Whatman #5 disk, 180 μg, 2.5% P80, stored 7 days, prediffusion 3 h at 4° C., duplicates) was 16 mm, the Inhibition zone diameter (MSSA ATCC 25923, Whatman #5 disk, 360 μg, 5% P80, stored 7 days, prediffusion 3 h at 4° C., duplicates) was 16.5 mm and the Zone diameter (MSSA quality control strain ATCC 25923, different combinations of the alterations to the traditional assay) was “up to 24 mm”. For the same molecule, the zone of inhibition at 360 µg/disc (Staphylococcus aureus, 3 h, read-out: Average zone diameter, ATCC 25923, 360 μg oritavancin, excipient 10% HPCD, disks made same day, 3 h prediffusion, average of 2 disks) was 17.5 mm, the zone of inhibition at 9000 µg/mL (Staphylococcus aureus, 3 h, 20 μl of 9 mg/ml oritavancin in 2.5% P80, prediffusion at 4° C. 3 h, duplicate determinations) was 18 mm and the zone of inhibition at 9000 µg/mL (Staphylococcus aureus, 3 h, 20 μl of 9 mg/ml oritavancin in 2.5% P80, prediffusion at room temperature 3 h, duplicate determinations) was 16.5 mm. For the same molecule, the zone of inhibition at 50 µg/disc (Staphylococcus aureus, 3 h, read-out: Inhibition zone diameter, MSSA ATCC 25923, 50 μg oritavancin, 0.5% P80/Span 80 (35:65) in water, dried approx. 3 hours, estimate of diameter) was 10 mm, the zone of inhibition at 50 µg/disc (Staphylococcus aureus, 3 h, read-out: Inhibition zone diameter, MSSA ATCC 25923, 50 μg oritavancin, 1% P80/Span 80 (35:65) in water, dried approx. 3 hours, estimate of diameter) was 15 mm and the zone of inhibition at 50 µg/disc (Staphylococcus aureus, 3 h, read-out: Inhibition zone diameter, MSSA ATCC 25923, 50 μg oritavancin, 2% P80/Span 80 (35:65) in water, dried approx. 3 hours, estimate of diameter) was 20 mm. The zone of inhibition at 50 µg/disc (Staphylococcus aureus, 3 h, read-out: Inhibition zone diameter, MSSA ATCC 25923, 50 μg oritavancin, 4% P80/Span 80 (35:65) in water, dried approx. 3 hours, estimate of diameter) was 28 mm, the zone of inhibition at 9000 µg/mL (Staphylococcus aureus, 6 h, 20 μl of 9 mg/ml oritavancin in 2.5% P80, prediffusion at 4° C. 6 h, duplicate determinations) was 21 mm and the zone of inhibition at 9000 µg/mL (Staphylococcus aureus, 6 h, 20 μl of 9 mg/ml oritavancin in 2.5% P80, prediffusion at room temperature 6 h, duplicate determinations) was 18 mm. For the same molecule, the zone of inhibition at 360 µg/disc (Staphylococcus aureus, 192 h, read-out: Zone diameter (mm ± SD), ATCC 25923, 360 μg in 5% P80, Experiment 2, disks stored 8 days, no prediffusion) was 14.5 mm, the zone of inhibition at 360 µg/disc (Staphylococcus aureus, 216 h, read-out: Average zone diameter, MSSA ATCC 25923, 360 μg oritavancin in 0.002% P80, without prediffusion, two disks (FIG. 1A), disks stored 9 days) was 10.5 mm and the zone of inhibition at 360 µg/disc (Staphylococcus aureus, 216 h, read-out: Average zone diameter, MSSA ATCC 25923, 360 μg oritavancin in 5% P80, with prediffusion (FIG. 1D), disks stored 9 days) was 17 mm. For the same molecule, the zone of inhibition at 360 µg/disc (Staphylococcus aureus, 216 h, read-out: Average zone diameter, MSSA ATCC 25923, 360 μg oritavancin in 5% P80, without prediffusion (FIG. 1B), disks stored 9 days) was 14.8 mm, the zone of inhibition at 360 µg/disc (Staphylococcus aureus, 336 h, read-out: Zone diameter (mm ± SD), ATCC 25923, 360 μg in 5% P80, Experiment 1, disks stored 14 days, no prediffusion) was 15.3 ± 0.4 mm and the zone of inhibition at 360 µg/disc (Staphylococcus aureus, read-out: Average zone diameter, ATCC 25923, 360 μg oritavancin, excipient 5% P80, disks stored 5 days at room temperature, 3 h prediffusion, average of 2 disks) was 19 mm. For the same molecule, the zone of inhibition at 45 µg/disc [1] was 12 mm, the zone of inhibition at 45 µg/disc [2] was 12.3 mm and the zone of inhibition at 90 µg/disc [1] was 11.8 mm. The zone of inhibition at 90 µg/disc [2] was 12.8 mm, the zone of inhibition at 180 µg/disc [1] was 12.3 mm and the zone of inhibition at 180 µg/disc [2] was 13 mm. For the same molecule, the zone of inhibition at 360 µg/disc (Staphylococcus aureus, read-out: Average zone diameter, MSSA ATCC 25923, 360 μg oritavancin in 0.002% P80, CAMHA containing 1% P80, no prediffusion) was 12.8 mm, the zone of inhibition at 360 µg/disc (Staphylococcus aureus, read-out: Average zone diameter, MSSA ATCC 25923, 360 μg oritavancin in 0.002% P80, CAMHA containing 1% P80, prediffusion) was 12.5 mm and the zone of inhibition at 12.5 µg/disc (Staphylococcus aureus, read-out: Inhibition zone diameter, 25923, calcium alginate swab, dried overnight) was 20 mm. It also gave a zone of inhibition at 12.5 µg/disc (Staphylococcus aureus, read-out: Inhibition zone diameter, 25923, cotton swab, dried overnight, estimate of diameter) of 27 mm, a zone of inhibition at 25 µg/disc (Staphylococcus aureus, read-out: Inhibition zone diameter, 25923, 25 μg in 4% P80/Span 80 (1:1), cotton swab (Table 14), dried overnight, estimate of diameter) of 30 mm and a zone of inhibition at 50 µg/disc (Staphylococcus aureus, read-out: Inhibition zone diameter, 25923, 50 μg in 4% P80/Span 80 (1:1), calcium alginate swab, dried overnight) of 19 mm.
